Laboratory results from ChEMBL document CHEMBL4145538, “Recent progress in the structural modification and pharmacological activities of ligustrazine derivatives” (Eur J Med Chem, 2018).
Values after ≈ are worked out from the molar mass of the structure shown. Values belong to the compound of their own block, whether it stands above or below them.

Columns and labels:
[1] = Half life in Sprague-Dawley rat at 20 mg/kg, iv; type: ADME, organism-based; conditions: in vivo
[2] = system: ECV-304; test: Protection against H2O2-induced damage in human ECV304 cells preincubated for 24 hrs followed by H2O2 addition and measured after 12 hrs by MTT assay; type: functional, cell-based
[3] = system: HT-29; test: Antiproliferative activity against human HT-29 cells after 72 hrs by MTT assay; type: functional, cell-based; conditions: HT-29, 72 h
[4] = system: HepG2; test: Antiproliferative activity against human HepG2 cells after 72 hrs by MTT assay; type: functional, cell-based; conditions: HepG2, 72 h
[5] = system: Bel-7402; test: Antiproliferative activity against human Bel7402 cells after 72 hrs by MTT assay; type: functional, cell-based; conditions: Bel-7402, 72 h
[6] = system: HeLa; test: Antiproliferative activity against human HeLa cells after 72 hrs by MTT assay; type: functional, cell-based
[7] = system: MCF7; test: Antiproliferative activity against human MCF7 cells after 72 hrs by MTT assay; type: functional, cell-based; conditions: MCF7, 72 h
[8] = system: HepG2; test: Antiproliferative activity against human HepG2 cells at 10 uM after 72 hrs by MTT assay relative to control; type: functional
[9] = system: MDCK; test: Antiproliferative activity against MDCK cells at 10 uM after 72 hrs by MTT assay relative to control; type: cell-based, Canis lupus familiaris; conditions: dog
[10] = system: PC-12; test: Neuroprotection against CoCl2-induced toxicity in rat PC12 cells preincubated for 36 hrs followed by CoCl2 addition measured after 12 hrs by MTT assay; type: functional, cell-based
[11] = system: Thoracic aorta; test: Vasodilatory activity in Sprague-Dawley rat thoracic aorta rings assessed as reduction in KCl-induced contraction; type: functional, tissue-based
[12] = system: Mus musculus; test: Anti-inflammatory activity in Kunming mouse assessed as inhibition of xylene-induced ear edema at 100 mg/kg, ig administered once daily for 7 days relative to control; type: functional; conditions: po, 168 h
[13] = system: Platelet; test: Antiplatelet activity in rabbit platelet rich plasma assessed as inhibition of ADP-induced platelet aggregation by cytometry; type: functional, cell-based; conditions: Oryctolagus cuniculus
[14] = system: A549; test: Antiproliferative activity against human A549 cells; type: functional, cell-based
[15] = system: A2780; test: Antiproliferative activity against human A2780 cells; type: functional, cell-based
[16] = system: HCT-8; test: Antiproliferative activity against human HCT8 cells; type: functional, cell-based
[17] = system: Bel-7402; test: Antiproliferative activity against human Bel7402 cells; type: functional, cell-based
[18] = system: BGC-823; test: Antiproliferative activity against human BGC823 cells; type: functional, cell-based
[19] = system: HUVEC; test: Protection against H2O2-induced damage in HUVEC; type: functional, cell-based; conditions: Homo sapiens
[20] = system: PC-12; test: Neuroprotection against CoCl2-induced toxicity in rat PC12 cells; type: functional, cell-based
[21] = system: MDCK; test: Antiproliferative activity against MDCK cells; type: cell-based; conditions: Canis lupus familiaris
[22] = system: HepG2; test: Antiproliferative activity against human HepG2 cells; type: functional, cell-based
[23] = system: HeLa; test: Antiproliferative activity against human HeLa cells; type: functional, cell-based
[24] = system: HT-29; test: Antiproliferative activity against human HT-29 cells; type: functional, cell-based
[25] = system: HUVEC; test: Potency index, ratio of ligustrazine EC50 to compound EC50 for protection against H2O2-induced damage in HUVEC; type: functional, Homo sapiens
[26] = system: HUVEC; test: Protection against H2O2-induced damage in HUVEC preincubated for 0.5 hrs followed by H2O2 addition and measured after 12 hrs; type: functional, cell-based; conditions: Homo sapiens
[27] = system: Staphylococcus epidermidis; test: Antibacterial activity against Staphylococcus epidermidis; type: functional
[28] = system: Staphylococcus aureus; test: Antibacterial activity against Staphylococcus aureus; type: functional
[29] = system: ECV-304; test: Potency index, ratio of ligustrazine EC50 to compound EC50 for protection against H2O2-induced damage in human ECV304 cells; type: functional

half-life [1]: 3.03 h
Compound: CCOC(=O)/C=C/c1cc(OC)c(OC(=O)c2nc(C)c(C)nc2C)c(OC)c1

Compound: CNC(=N)NC(=O)c1nc(C)c(C)nc1C
EC50 [2]: 97 µM

IC50 [3]: 5.23 µM
IC50 [4]: 4.48 µM
IC50 [5]: 4.19 µM
IC50 [6]: 4.34 µM
IC50 [7]: 4.23 µM
Compound: Cc1nc(C)c(COC(=O)[C@]23CC[C@@H](C(C)C)[C@H]2[C@@H]2CC[C@@H]4[C@@]5(C)CC[C@H](O)C(C)(C)[C@@H]5CC[C@@]4(C)[C@]2(C)CC3)nc1C
Activity [8]: 99.87%
Activity [9]: 26.5%

Compound: Cc1nc(C)c(COCc2ccc(OCc3nc(C)c(C)nc3C)cc2)nc1C
EC50 [10]: 1.66 µM

EC50 [11]: 751 µM
Compound: Cc1nc(C)c(COc2ccc(COc3ccc(C=O)cc3)cc2)nc1C

Compound: Cc1nc(C)c(COC(=O)c2cc(O)c3c(c2)C(=O)c2cccc(O)c2C3=O)nc1C
inhibition in vivo at 100 mg/kg [12]: 76.4%

IC50 [13]: 2790 µM
Compound: COc1ccc(C(=O)NCc2nc(C)c(C)nc2C)cc1C(=O)NCc1nc(C)c(C)nc1C

Compound: COc1cc(COCc2nc(C)c(C)nc2C)ccc1OCc1nc(C)c(C)nc1C
EC50 [10]: 1.07 µM

IC50 [14]: 5.89 µg/mL (≈ 9.25 µM)
IC50 [15]: 5.54 µg/mL (≈ 8.7 µM)
IC50 [16]: 7.11 µg/mL (≈ 11.2 µM)
IC50 [17]: 6.39 µg/mL (≈ 10 µM)
IC50 [18]: 5.47 µg/mL
Compound: COc1cc(/C=C/C(=O)CC(=O)/C=C/c2ccc(OCc3nc(C)c(C)nc3C)c(OC)c2)ccc1OCc1nc(C)c(C)nc1C

Compound: CC(=O)OC(C(=O)NCc1nc(C)c(C)nc1C)c1ccccc1 (configuration not stated)
EC50 [19]: 70 µM

Compound: COc1cc(C(=O)OCc2nc(C)c(C)nc2C)ccc1OCc1nc(C)c(C)nc1C
EC50 [20]: 4.25 µM

IC50 [22]: 2.27 µM
IC50 [23]: 2.38 µM
IC50 [24]: 2.35 µM
IC50 [18]: 2.48 µM
Compound: Cc1nc(C)c(COC(=O)[C@]23CCC(C)(C)C[C@H]2C2=CC[C@@H]4[C@@]5(C)CC[C@H](OC(=O)[C@@H](N)CCCCN)C(C)(C)[C@@H]5CC[C@@]4(C)[C@]2(C)CC3)nc1C
IC50 [21]: 2.31 µM

Compound: Cc1nc(C)c(CNC(=O)c2ccncc2)nc1C
EC50 [19]: 37 µM

IC50 [22]: 21.4 µM
IC50 [23]: 8.68 µM
IC50 [24]: > 25 µM
Compound: Cc1nc(C)c(COC(=O)[C@]23CCC(C)(C)C[C@H]2C2=CC[C@@H]4[C@@]5(C)CC[C@H](O)C(C)(C)[C@@H]5CC[C@@]4(C)[C@]2(C)CC3)nc1C

Compound: Cc1nc(C)c(/C=C/c2ccccc2Cl)nc1C
Ratio EC50 [25]: 30000
EC50 [26]: 0.0249 µM

MIC [27]: 4 µg/mL (≈ 9.16 µM)
MIC [28]: 8 µg/mL (≈ 18.3 µM)
Compound: Cc1nc(C)c(COc2ccc(N3CC(CNC(=O)CCl)OC3=O)cc2F)nc1C (configuration not stated)

Compound: COc1cc(C(=O)c2cccc(N(C)C)c2)ccc1OCc1nc(C)c(C)nc1C
EC50 [20]: 17.4 µM

Compound: Cc1nc(C)c(C(=O)NC(=N)NCc2cccc(Cl)c2)nc1C
Ratio EC50 [29]: 10
EC50 [2]: 59 µM

Compound: Cc1nc(C)c(CCOc2cccc3c2C(=O)c2c(OCCc4nc(C)c(C)nc4C)cc(C(=O)O)cc2C3=O)nc1C
inhibition in vivo at 100 mg/kg [12]: 17.5%

EC50 [11]: 93 µM
Compound: Cc1nc(C)c(C(=O)Oc2ccc(CO[N+](=O)[O-])cc2)nc1C

EC50 [11]: 751 µM
Compound: CCOC(=O)c1ccc(OCc2ccc(OCc3nc(C)c(C)nc3C)cc2)cc1

Compound: Cc1nc(C)c(COCCc2ccc(OCc3nc(C)c(C)nc3C)cc2)nc1C
EC50 [10]: 2.03 µM

EC50 [11]: 379 µM
Compound: Cc1nc(C)c(COc2ccc(COC(=O)c3cccnc3)cc2)nc1C

Compound: COc1ccc(/C=C/c2nc(C)c(C)nc2C)c(OC)c1OC
EC50 [26]: 5.76 µM

Compound: Cc1nc(C)c(C(=O)NC(=N)NCc2ccc(Cl)c(Cl)c2)nc1C
EC50 [2]: 94 µM

Compound: Cc1nc(C)c(COC(=O)CC[C@@H](C)[C@H]2CC[C@H]3[C@@H]4CC[C@@H]5C[C@H](O)CC[C@]5(C)[C@H]4C[C@H](O)[C@]23C)nc1C
IC50 [14]: 6.69 µg/mL (≈ 12.7 µM)
IC50 [15]: 6.62 µg/mL (≈ 12.6 µM)
IC50 [16]: 7.43 µg/mL (≈ 14.1 µM)
IC50 [17]: 8.01 µg/mL (≈ 15.2 µM)
IC50 [18]: 6.66 µg/mL

Compound: COc1cccc(/C=C/c2nc(C)c(C)nc2C)c1O
EC50 [26]: 28.9 µM

Compound: Cc1nc(C)c(COc2ccc(N3CC(CNC(=O)CCl)OC3=O)cc2)nc1C (configuration not stated)
MIC [27]: 8 µg/mL (≈ 19.1 µM)
MIC [28]: 8 µg/mL (≈ 19.1 µM)

Compound: Cc1nc(C)c(CNC(=O)C(O)c2ccccc2)nc1C (configuration not stated)
EC50 [19]: 55 µM

Compound: COc1ccc(/C=C/C(=O)NCc2nc(C)c(C)nc2C)c(OC)c1OC
EC50 [20]: 25 µM

IC50 [22]: 2 µM
IC50 [23]: 3.26 µM
IC50 [24]: 2.5 µM
IC50 [18]: 3.06 µM
Compound: Cc1nc(C)c(COC(=O)[C@]23CCC(C)(C)C[C@H]2C2=CC[C@@H]4[C@@]5(C)CC[C@H](OC(=O)CN)C(C)(C)[C@@H]5CC[C@@]4(C)[C@]2(C)CC3)nc1C
IC50 [21]: 4.88 µM

IC50 [14]: 6.52 µg/mL (≈ 17.7 µM)
IC50 [15]: 6.52 µg/mL (≈ 17.7 µM)
IC50 [16]: 6.28 µg/mL (≈ 17 µM)
IC50 [17]: 6.5 µg/mL (≈ 17.6 µM)
IC50 [18]: 6.81 µg/mL
Compound: COc1cc(/C=C/C(=O)CC(=O)/C=C/c2ccc(O)c(OC)c2)ccc1O [CURCUMIN]

IC50 [3]: > 20 µM
EC50 [11]: 2330 µM
IC50 [4]: > 20 µM
IC50 [5]: > 20 µM
IC50 [6]: > 20 µM
IC50 [7]: > 20 µM
Compound: Cc1nc(C)c(C)nc1C [LIGUSTRAZINE]
EC50 [19]: 600 µM
EC50 [2]: 549 µM
EC50 [26]: 788 µM
EC50 [20]: 60 to 64.5 µM
EC50 [10]: 64.5 µM

IC50 [13]: 49900 µM
Compound: COc1ccc(C(=O)NCc2cccnc2)cc1C(=O)NCc1cccnc1 [PICOTAMIDE]

Compound: O=C(O)c1cc(O)c2c(c1)C(=O)c1cccc(O)c1C2=O [RHEIN]
inhibition in vivo at 100 mg/kg [12]: 65.5%
